The numbers were not newly measured in patent US7834258B2, “Dimer of chimeric recombinant binding domain-functional group fusion formed via disulfide-bond-bridge and the processes for producing the same” (priority 2003, dated 2010), which cites them from elsewhere.

The test system of this data set is H2981 human lung adenocarcinoma cells.

Consider `Nc1nc(=O)[nH]cc1F` [5-FC, 5-Fluorocytosine], for which the cytotoxicity result (H2981 cells, 200 uM concentration) was “no effect”. As to `O=c1[nH]cc(F)c(=O)[nH]1` [5-FU, 5-Fluorouracil], the IC50 (H2981 human lung adenocarcinoma cells, read-out: ID50 (the source's name)) is 20 µM.
